How the values were obtained:
[1] = system: BKIII (recombinant butyrate kinase derived from Thermosediminibacter oceani); experiment: Substrate specificity of butyrate kinase BKIII; format: biochemical; settings: 100 mM sodium salt of fatty acid in second reagent, pH 7.5
Experimental: (§1) Various fatty acids shown in Table 1 were used as a substrate. The measurement was performed using a 7180 type Hitachi automatic analyzer (Hitachi High-Tech Corporation). […] PHARMA CORPORATION) • 5 U/mL ADP-HK II (ADP dependent hexokinase: […] PHARMA CORPORATION) […] In the composition of the second reagent, “sodium salts of various fatty acids” means any one kind of sodium caprylate, sodium caproate, sodium valerate, sodium isovalerate, sodium butyrate, sodium isobutyrate, sodium propionate, sodium acetate, sodium lactate, and sodium succinate. Isobutyric acid, valeric acid, isovaleric acid, caproic acid, and octanoic acid, which are commercially available fatty acids and are not sold as sodium salts, were adjusted to pH 7.5 with sodium hydroxide. […] [Measurement Parameters of Automatic Analyzer] • Analysis method: […]

[2] = system: BKII (recombinant butyrate kinase derived from Acetoanaerobium sticklandii); experiment: Substrate specificity of butyrate kinase BKII; format: biochemical; settings: 100 mM sodium salt of fatty acid in second reagent, pH 7.5
Experimental: as §1

[3] = Thermal stability of recombinant butyrate kinase (remaining activity); format: physicochemical; settings: for remaining activity: after incubating at 65° C. for 30 minutes, 50 mM potassium phosphate pH 7, 0.1% TN-100, about 1 mg/mL
Experimental: The thermal stability of BKII was examined based on the remaining activity after incubating approximately 0.3 mg/mL BKII at each temperature of 4 to 50° C. for 30 minutes in 10 mM Tris-HCl buffer (pH 7.5) containing 100 mM KCl. The thermal stability of BKIII was examined based on the remaining activity after incubating approximately 1 mg/mL BKIII in 50 mM potassium phosphate buffer (pH 7) containing 0.1% TN-100 (ADEKA Corporation) at each temperature of 4 to 80° C. for 30 minutes. The remaining activity was measured in the same manner as in Example 1. From FIGS. 12 and 13, the thermal stability (remaining activity) of BKII was 50% or more after treatment at 37° C. for 30 minutes, and the thermal stability (remaining activity) of BKIII was 85% or more after treatment at 70° C. for 30 minutes.
The thermal stability of BKIII, Thermosediminibacter oceani-derived butyrate kinase (ToBK2) prepared in Reference Example 4, Natranaerobius thermophilus-derived butyrate kinase (NtBK) prepared in Reference Example 5, and Symbiobacterium thermophilum-derived butyrate kinase (StBK) prepared in Reference Example 6 were compared. Specifically, each butyrate kinase was added to a 50 mM potassium phosphate buffer (pH 7) containing 0.1% TN-100 so that the concentration is about 1 mg/mL, and the remaining activity after incubating at 65° C. for 30 minutes was measured. The remaining activity was measured in the same manner as in Example 1.

[4] = Measurement of recombinant butyrate kinase activity (ADP-HK/G6PDH coupled, NADPH at 340 nm); specific activity, Km and Vmax; format: biochemical; settings: with respect to butyric acid
Experimental: The enzymatic activity of BKII and BKIII with respect to butyric acid was measured based on the amount of ADP produced. In the Example 1, ADP produced by the action of butyrate kinase is used to produce NADPH by the action of ADP dependent hexokinase and glucose-6-phosphate dehydrogenase (see FIG. 1), and the amount of ADP produced was measured based on the change in absorbance at 340 nm due to the increase in NADPH. The measurement was performed using a 7080 type Hitachi automatic analyzer (Hitachi High-Tech Corporation).
[Composition of First Reagent] • 50 mM Tris-HCl (pH 7.5) (Sigma-Aldrich Co. LLC.) • 2 mM ATP (pH 7.5) (Oriental Yeast Co., Ltd.) • 2 mM MgCl2 (FUJIFILM Wako Pure Chemical Corporation) • 20 mM glucose (FUJIFILM Wako Pure Chemical Corporation) • 100 mM sodium butyrate (FUJIFILM Wako Pure Chemical Corporation) • 1 mM NADP (FUJIFILM Wako Pure Chemical Corporation) • 5 U/mL G6PDH II (Glucose-6-phosphate dehydrogenase: T-51, ASAHI KASEI PHARMA CORPORATION) • 5 U/mL ADP-HK II (ADP dependent hexokinase: T-92, ASAHI KASEI PHARMA CORPORATION) • 0.1% TN-100 (ADEKA Corporation)
[Composition of BKII Diluent] • 50 mM Tris-HCl (pH 7.5) (Sigma-Aldrich Co. LLC.) • 10 mM KCl (FUJIFILM Wako Pure Chemical Corporation)
[Composition of BKIII Diluent] • 50 mM Potassium phosphate buffer (pH 7.0) (Sigma-Aldrich Co. LLC.) • 0.1% TN-100 (ADEKA Corporation)
[Measurement Parameters of Automatic Analyzer] • Analysis method: Rate-A • Measurement wavelength (secondary/primary): 700 nm/340 nm • Reaction time: 5 minutes • Photometry point: 11 to 16 • Sample volume: 3 μL • First reagent amount: 150 μL […]
The sample was dispensed into a cuvette, then the first reagent was added and stirred. […] The cuvette was irradiated with light and the change in absorption at 340 nm was measured between about 200 seconds and about 296 seconds after the addition of the first reagent. […] The activity value (U/mL) of butyrate kinase was calculated from the following formula by defining the amount of enzyme that phosphorylates 1 μmol of butyric acid per minute as 1 U and using the value of the absorbance change per minute (ΔmAbs/min) calculated from the absorbance at the photometry point and the millimole extinction coefficient (c=6.3) of […] at 340 nm. […]
The specific activity (U/mg) is the activity value per 1 mg of enzyme. The protein (enzyme) concentrations of the BKII solution obtained in Reference Example 1 and the BKIII solution obtained in Reference Example 3 were quantified by the Bradford method, and the specific activities of BKII and BKIII with respect to butyric acid under the measurement conditions of Example 1 were calculated. […]
The Km and Vmax of BKII and BKIII with respect to butyric acid under the measurement conditions of Example 1 were determined by Lineweaver-Burk plot.

## CCCCCC(=O)O [Caproic acid]
[1]
  substrate specificity, relative value when the activity value with respect to butyric acid is 100: 56%
[2]
  substrate specificity, relative value when the activity value with respect to butyric acid is 100: 22%

## CC(C)CC(=O)O [Isovaleric acid]
[1]
  substrate specificity, relative value when the activity value with respect to butyric acid is 100: 148%
[2]
  substrate specificity, relative value when the activity value with respect to butyric acid is 100: 133%

## CC(O)C(=O)O (stereo not shown) [Lactic acid]
[1]
  substrate specificity, relative value when the activity value with respect to butyric acid is 100: 0%
[2]
  substrate specificity, relative value when the activity value with respect to butyric acid is 100: 0%

## CCCCCCCC(=O)O [Octanoic acid]
[1]
  substrate specificity, relative value when the activity value with respect to butyric acid is 100: 0%
[2]
  substrate specificity, relative value when the activity value with respect to butyric acid is 100: 0%

## CCC(=O)O [Propionic acid]
[1]
  substrate specificity, relative value when the activity value with respect to butyric acid is 100: 41%
[2]
  substrate specificity, relative value when the activity value with respect to butyric acid is 100: 62%

## O=C(O)CCC(=O)O [Succinic acid]
[1]
  substrate specificity, relative value when the activity value with respect to butyric acid is 100: 0%
[2]
  substrate specificity, relative value when the activity value with respect to butyric acid is 100: 2%

## CCCCC(=O)O [Valeric acid]
[1]
  substrate specificity, relative value when the activity value with respect to butyric acid is 100: 138%
[2]
  substrate specificity, relative value when the activity value with respect to butyric acid is 100: 161%

B1: BKII: recombinant butyrate kinase derived from Acetoanaerobium sticklandii obtained in Reference Example 1 (T7 tag and His tag; SEQ ID NO: 17) (protein, listed as Acetoanaerobium sticklandii)
chain: MEGTMSTYKILAINPGSTSTKIAVYENETQIMEKTLRHSTEEINKYEKIFDQFEFRKNVIVDAVSEAGIAIEELDAVVGRGGLLKPIKGGTYEVSDELIAGLKEPYLGEHASNLGGIIAKEIADAALAPSFIVDPVVVDEMNDVARISGMPEIPRFSIFHALNQKATARRFASEIGKSYEDINVIVAHMGGGVSVGAHEKGRVIDVNNALDGEGPFSPERAGGLPVGDLAKLCFSGKYTHAQIKKLLKGEGGIVAYLGTNDARDVEKMIAEGDEKAKLIYEAMAYQVAKEIGSCATVLKGKVDAIILTGGIAYSEMITTWIKERVSFIADVKIYAGEDEMSALAQGALRVLREEEKPQRYEA
modifications: T7 tag and His tag
[3]; after treatment at 37° C. for 30 minutes, 10 mM Tris-HCl pH 7.5, 100 mM KCl
  thermal stability (remaining activity): ≥ 50%
[4]; enzyme solution, 37° C., Tris-HCl pH 7.5
  activity value of butyrate kinase: about 340 U/mL
[4]; Lineweaver-Burk plot
  Km: 4.2 mM
  Vmax: 1100 U/mg
[4]; measurement conditions of Example 1, protein by Bradford method
  specific activity: about 337 U/mg

B2: NtBK: Natranaerobius thermophilus-derived butyrate kinase prepared in Reference Example 5 (SEQ ID NO: 23, His tag) (protein)
chain: MKQEHRLLVINPGSTSTKIAVYEGESPLIEKKLEHSPEELNKFQDIIDQYDFRKDSILNFLDEQGMNFNKLDAVVARGGLLKPISGGTFKVNDLMVEHLRQGYQGEHASNLGGIIAKEISNQLDIPAYIVDPVVVDELQDIARISGFEPIERKSIFHALNHKAVARKAAAQLGKKYEEANLVVVHLGGGISVGAHNCGDVIDVNNALDGEGPFSPERSGGLPNGDLVRYIDEHNLTWKELKRQLVGNGGLVSYLDTNDGKKVQEMIQSGDEKAEKVYEAMIYQIAKEIGSCAVVLKGELDAIVLTGGLAHDEYLVSRMKEYIKFLGEILVFPGEDEMQSLAEGGLRVLRNEETPKDYS
modifications: His tag; Natranaerobius thermophiles
[3]
  remaining activity: 14.7%

B3: StBK: Symbiobacterium thermophilum-derived butyrate kinase prepared in Reference Example 6 (SEQ ID NO: 25, His tag) (protein, listed as Symbiobacterium thermophilum)
chain: MQQRLLIINPGSTSTKIAVYDDDSPLFAETLRHSAADLACFRDVAAQFPFRRDLILEALDAHGVSLSSLTAVVGRGGLLRPVRGGTYRVDAAMLAELSRAAHGEHASNLGALLAHEIAQAAGGVPAFIVDPVVVDELEPVARLTGLPEMPRRSVFHALNQKAVARRAAADLGRAYTEVNLVVVHLGGGISVGAHRRGRVVDVNNALDGEGPMAPERAGTVPSLGLVHLAFSWQHTLREVGRMLVGRGGLVAHVGTNDARRVEERIAAGDEAARVAYRAMAYQVAKEVGRAAVALGGQVDRIVLTGGLAHSEMLTGWIAEQVEWIAPVAVYPGEDEMAALAAGALRVLRGEEPAQVYGEAGE
modifications: His tag
[3]
  remaining activity: 48.7%

B4: ToBK2: Thermosediminibacter oceani-derived butyrate kinase prepared in Reference Example 4 (SEQ ID NO: 21, His tag) (protein, listed as Thermosediminibacter oceani)
chain: MEKFRILAINPGSTSTKISIFHGEEEVFTENIVHDYEELKKFKNVIEQEGYRYEAILNALAARGYSLDEIDVVVARGGILRPVKAGTYRINDLMLEDLKDAVAGEHASNVAAFIAHRIGAEKGIPAYIVDPVSVDEMEDVARISGLDGIERKSLSHALNIRRVIYKVSEKFGKDPGELNFIVAHLGGGISIGAIRRGQMVDVESANCEGPFSPERSGGLPILELIDLCFSGRFTKDELKRRLIQEGGVYSYLGTKDIREVEERTRSGDKKAALILEAMVYQIAKCIGQMATVLKGDVDFIILTGGIAKSDYISECIADRVKFIAPVERVPGEEEMKALAEAACRVMTGREKVLDYGGGE
modifications: His tag
[3]
  remaining activity: 60.5%

Reference: US11773379B2, “Enzymes and reagents for measurement of short chain fatty acids” (SYSMEX CORPORATION, priority 2018, dated 2023)
